Laboratory results reported in ChEMBL document CHEMBL3272027, “Chemoimmunotherapy of cancer” (1977).

Columns and labels:
Assay type in all cases: functional
P388 [1] = test: In vivo antitumor activity against mouse P388 cells in 3PS31 test system at 50 mg/kg administered on day 1, 5 and 9 relative to control
P388 [2] = test: In vivo antitumor activity against mouse P388 cells in 3PS31 test system at 6.25 mg/kg administered on day 1, 5 and 9 relative to control
P388 [3] = test: In vivo antitumor activity against mouse P388 cells in 3PS31 test system at 12.5 mg/kg administered on day 1, 5 and 9 relative to control
P388 [4] = test: In vivo antitumor activity against mouse P388 cells in 3PS31 test system at 25 mg/kg administered on day 1, 5 and 9 relative to control
P388 [5] = test: In vivo antitumor activity against mouse P388 cells in 3PS31 test system at 75 mg/kg administered on day 1, 5 and 9 relative to control

| Compound | T/C (P388 [1]) | T/C (P388 [2]) | T/C (P388 [3]) | T/C (P388 [4]) | T/C (P388 [5]) |
| --- | --- | --- | --- | --- | --- |
| O=[N+]([O-])c1cc([N+](=O)[O-])c(NCCCSCCCl)c(S(=O)(=O)O)c1 | 128% | 111% | 132% | 136% |  |
| O=[N+]([O-])c1cc([N+](=O)[O-])c(NCCSCCCl)c(S(=O)(=O)O)c1 | 124% |  | 111% | 124% | 118% |
| O=C(O)c1cc([N+](=O)[O-])cc([N+](=O)[O-])c1NCCSCCCl | 106% |  | 102% | 111% |  |
